Test system: test organism of Delvotest SP-NT
Experiment: Microbial growth inhibition test (DSM Delvotest SP-NT, reference or modified with streptomycin in the test medium): detection limit of antibiotics in spiked milk
Format: cell-based
Settings: for Detection limit: spiked milk, 64° C., cut-off Z-value 0; for Effect of an aminoglycoside antibiotic in the test medium on the sensitivity of the test for the antibiotic: aminoglycoside antibiotic (streptomycin) added to test medium versus reference test
Protocol: As a reference, a commercially available test system without any added aminoglycoside antibiotic (DSM Delvotest® SP-NT, plates containing 8×12 test wells) was used. In addition, two different test systems were prepared by modifying the reference test by adding the aminoglycoside antibiotic streptomycin to the test medium in a final concentration of 100 ppb or 1000 ppb. The detection limits of four different antibiotics were measured in the reference test and in the tests with modified medium containing different concentrations of streptomycin. The antibiotics that were measured were streptomycin and dihydrostreptomycin (DH-streptomycin) (both belonging to the aminoglycoside antibiotic family), penicillin G (belonging to the beta-lactam antibiotic family), and oxytetracycline (belonging to the tetracycline antibiotic family) Five different concentrations of each antibiotic (see Table 1) were measured. Hundred microliter antibiotic-free milk or hundred microliter milk spiked with the respective concentrations of antibiotic was added to the test medium (170 μl) and incubated at 64° C. in a water bath. The tests were visually determined at the point in time where a sample without antibiotic had changed colour from purple to yellow. At this point, the plates were cooled in an ice bath for 5 minutes. The cooled plates were scanned on a Delvo® scanner. The colour of each well was expressed as a Z-value; a purple colour gives rise to a positive Z-value, while a yellow colour has a negative Z-value. The Z-value of test results with samples without antibiotic is typically […]. Detailed description of the scanning technology and the expression of the colour in Z-values are described in WO 03/033728. For the determination of the detection limit for each antibiotic, a dose-response function (Z-value versus concentration of antibiotic) was constructed. The detection limit is defined as the antibiotic concentration where the S-shaped dose-response function has a Z-value equal to the cut-off value. For Delvotest® SP-NT a cut-off Z-value of 0 was used.

[1] = Streptomycin concentration in test 100 ppb
[2] = Streptomycin concentration in test 1000 ppb
[3] = Streptomycin concentration in test 0 ppb (reference Delvotest SP-NT)

CN[C@@H]1[C@H](O[C@H]2[C@H](O[C@H]3[C@H](O)[C@@H](O)[C@H](NC(=N)N)[C@@H](O)[C@@H]3NC(=N)N)O[C@@H](C)[C@]2(O)CO)O[C@@H](CO)[C@H](O)[C@H]1O [DH-streptomycin, dihydrostreptomycin]
Detection limit [1]: 982 ppb | Detection limit [2]: 445 ppb | Effect of an aminoglycoside antibiotic in the test medium on the sensitivity of the test for the antibiotic: increases

CN(C)[C@@H]1C(O)=C(C(N)=O)C(=O)[C@@]2(O)C(O)=C3C(=O)c4c(O)cccc4[C@@](C)(O)[C@H]3[C@H](O)[C@@H]12 [Oxytetracycline, oxytetracycline]
Detection limit [3]: 264 ppb | Detection limit [1]: 239 ppb | Detection limit [2]: 343 ppb | Effect of an aminoglycoside antibiotic in the test medium on the sensitivity of the test for the antibiotic: no effect

CC1(C)S[C@@H]2[C@H](NC(=O)Cc3ccccc3)C(=O)N2[C@H]1C(=O)O [Penicillin G, penicillin G]
Detection limit [3]: 1.04 ppb | Detection limit [1]: 0.95 ppb | Detection limit [2]: 1.07 ppb | Effect of an aminoglycoside antibiotic in the test medium on the sensitivity of the test for the antibiotic: no effect

[H]/N=C(/N)N[C@H]1[C@H](O)[C@@H](O)[C@H](O[C@@H]2O[C@@H](C)[C@](O)(C=O)[C@H]2O[C@@H]2O[C@@H](CO)[C@H](O)[C@@H](O)[C@@H]2NC)[C@@H](N/C(N)=N\[H])[C@@H]1O [Streptomycin, streptomycin]
Detection limit [1]: 1186 ppb | Detection limit [2]: 676 ppb | Effect of an aminoglycoside antibiotic in the test medium on the sensitivity of the test for the antibiotic: increases

— patent US9732370B2, “Method for the determination of the presence of an antibiotic in a fluid” (DSM IP ASSETS B.V., priority 2013, dated 2017)
